According to US20240270809A1, “ORAL GLP RECEPTOR AGONISTS” (priority 2020, published 2024):
Positions of bridges follow the written chain, without caps; N, C: chain ends. Non-standard residues stand in square brackets, D forms with d. Residues, ends and D or L forms follow the SMILES beside them. *: point of attachment. Malonyl(2,2-Me2,histaminyl) = CC(C)(C(=O)NCCc1cnc[nH]1)C(=O)*; Ala(1H-tetrazol-5-yl) = N[C@@H](Cc1nnn[nH]1)C(=O)O; αMeL = CC(C)C[C@](C)(N)C(=O)O; Nle = CCCC[C@H](N)C(=O)O; Aib = CC(C)(N)C(=O)O

What was measured:
human GLP2 receptor = target: T1, human GLP2 receptor (Homo sapiens, UniProt O95838); assay: cAMP accumulation assay, functional agonism of human GLP2 receptor; assay type: cell-based; conditions: HEK cells infected with human GLP2 receptor BacMam virus, HTRF cAMP; for Emax: HEK293, read-out: Human GLP-2R agonist cAMP Emax; for EC50: read-out: Human GLP-2R agonist cAMP pEC50 (converted)
T1 construct: expressed in transfected cells; host or cells: HEK cells, BacMam virus transduction
T1 sequence (O95838 1-553): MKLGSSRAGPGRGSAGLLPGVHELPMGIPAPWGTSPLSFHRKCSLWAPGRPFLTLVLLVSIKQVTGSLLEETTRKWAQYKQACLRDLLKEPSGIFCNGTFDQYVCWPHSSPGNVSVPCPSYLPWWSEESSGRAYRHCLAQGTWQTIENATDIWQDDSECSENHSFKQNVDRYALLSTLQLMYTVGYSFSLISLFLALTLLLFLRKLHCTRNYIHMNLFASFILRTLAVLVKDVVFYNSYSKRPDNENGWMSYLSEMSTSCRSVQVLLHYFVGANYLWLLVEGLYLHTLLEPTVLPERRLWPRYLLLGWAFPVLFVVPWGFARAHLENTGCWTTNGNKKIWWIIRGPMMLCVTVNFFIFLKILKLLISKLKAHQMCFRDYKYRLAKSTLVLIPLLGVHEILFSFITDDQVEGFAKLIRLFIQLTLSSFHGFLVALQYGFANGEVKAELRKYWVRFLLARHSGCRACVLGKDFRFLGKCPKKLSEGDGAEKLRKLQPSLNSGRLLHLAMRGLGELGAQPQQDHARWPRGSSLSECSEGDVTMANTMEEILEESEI
How it was run: (§1)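 HEK cells transduced 24 h with human GLP1 or GLP2 receptor BacMam virus, then frozen until use. Agonist stimulation for 45 min at 37 °C in HBSS with 0.5 mM IBMX; cAMP measured by HTRF after lysis.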

human GLP1 receptor = target: T2, human GLP1 receptor (Homo sapiens, UniProt P43220); assay: cAMP accumulation assay, functional agonism of human GLP1 receptor; assay type: cell-based; conditions: HEK cells infected with human GLP1 receptor BacMam virus, HTRF cAMP; for Emax: HEK293, read-out: Human GLP-1R agonist cAMP Emax; for EC50: read-out: Human GLP-1R agonist cAMP pEC50 (converted)
T2 construct: expressed in transfected cells; host or cells: HEK cells, BacMam virus transduction
How it was run: as §1

T2 sequence (P43220 24-463): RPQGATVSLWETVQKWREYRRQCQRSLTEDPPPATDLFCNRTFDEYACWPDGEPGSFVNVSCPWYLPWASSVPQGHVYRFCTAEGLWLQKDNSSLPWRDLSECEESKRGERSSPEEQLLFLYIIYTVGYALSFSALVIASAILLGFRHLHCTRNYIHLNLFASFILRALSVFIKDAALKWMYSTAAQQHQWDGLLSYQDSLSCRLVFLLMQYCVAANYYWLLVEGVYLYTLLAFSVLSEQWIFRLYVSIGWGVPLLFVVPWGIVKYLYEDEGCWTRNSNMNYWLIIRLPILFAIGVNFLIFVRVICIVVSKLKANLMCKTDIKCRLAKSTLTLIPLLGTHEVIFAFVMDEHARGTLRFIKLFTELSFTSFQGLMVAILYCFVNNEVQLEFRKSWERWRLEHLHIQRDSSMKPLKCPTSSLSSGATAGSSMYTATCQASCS

CCCC[C@H](NC(=O)[C@H](CCC(=O)O)NC(=O)[C@@H]1CC(=O)NCCCC[C@H](NC(=O)[C@H](CCC(=O)O)NC(=O)C(C)(C)NC(=O)[C@@H](N)Cc2c[nH]cn2)C(=O)N[C@@H](CO)C(=O)N[C@@H](Cc2ccccc2)C(=O)N[C@@H](CO)C(=O)N1)C(=O)N[C@H](Cc1ccccc1)C(=O)N[C@H](C(=O)N[C@@](C)(CC(C)C)C(=O)N[C@@H](CC(C)C)C(=O)N[C@@H](CC(=O)O)C(=O)N[C@H]1CCC(=O)NCCCC[C@@H](C(=O)N[C@@H](CC(=O)O)C(=O)N[C@@H](Cc2ccccc2)C(=O)N[C@H](C(=O)N[C@H]2CCC(=O)NCCCC[C@@H](C(=O)N[C@H](C(=O)N[C@@H](CCCCN)C(N)=O)[C@@H](C)O)NC(=O)[C@H]([C@@H](C)CC)NC(=O)[C@H](CC(C)C)NC(=O)[C@H](Cc3c[nH]c4ccccc34)NC2=O)[C@@H](C)CC)NC(=O)[C@H](C)NC(=O)[C@H](C)NC(=O)[C@H](CCCCN)NC1=O)[C@@H](C)O [Example 28] (H-H[Aib]EKSFSDE[Nle][dF]T[αMeL]LDEKAAKDFIEWLIKTK-NH2; lactam 4-8, 16-20, 24-28 (inferred); C-terminus assumed)
Emax (human GLP2 receptor): 99.6% | EC50 (human GLP2 receptor): 0.316 nM | Emax (human GLP1 receptor): 96% | EC50 (human GLP1 receptor): 0.0794 nM

CCCC[C@H](NC(=O)[C@H](CCC(=O)O)NC(=O)[C@@H]1CC(=O)NCCCC[C@H](NC(=O)[C@H](CC(=O)O)NC(=O)C(C)(C)C(=O)NCCc2c[nH]cn2)C(=O)N[C@@H](CO)C(=O)N[C@@H](Cc2ccccc2)C(=O)N[C@@H](CO)C(=O)N1)C(=O)N[C@H](Cc1ccccc1)C(=O)N[C@H](C(=O)N[C@@](C)(CC(C)C)C(=O)N[C@@H](CC(C)C)C(=O)N[C@@H](CC(=O)O)C(=O)N[C@H]1CCC(=O)NCCCC[C@@H](C(=O)N[C@@H](CC(=O)O)C(=O)N[C@@H](Cc2ccccc2)C(=O)N[C@H](C(=O)N[C@H]2CCC(=O)NCCCC[C@@H](C(=O)N[C@H]3CCC(=O)NCCCC[C@@H](C(N)=O)NC(=O)[C@H]([C@@H](C)O)NC(=O)[C@H]([C@@H](C)CC)NC(=O)[C@H](CCCCN)NC3=O)NC(=O)[C@H]([C@@H](C)CC)NC(=O)[C@H](CC(C)C)NC(=O)[C@H](Cc3c[nH]c4ccccc34)NC2=O)[C@@H](C)CC)NC(=O)[C@H](C)NC(=O)[C@H](C)NC(=O)[C@H](CCCCN)NC1=O)[C@@H](C)O [Example 68] ({Malonyl(2,2-Me2,histaminyl)}-DKSFSDE[Nle][dF]T[αMeL]LDEKAAKDFIEWLIKEKITK-NH2; lactam 2-6, 14-18, 22-26, 27-31 (inferred); C-terminus assumed)
Emax (human GLP2 receptor): 103% | EC50 (human GLP2 receptor): 0.0794 nM | Emax (human GLP1 receptor): 94% | EC50 (human GLP1 receptor): 0.316 nM

CCCC[C@@H]1NC(=O)[C@H](CCC(=O)O)NC(=O)[C@@H](NC(=O)[C@H](CO)NC(=O)[C@H](Cc2ccccc2)NC(=O)[C@H](CO)NC(=O)CNC(=O)[C@H](CC(=O)O)NC(=O)C(C)(C)NC(=O)[C@@H](N)Cc2c[nH]cn2)CCCCNC(=O)C[C@@H](C(=O)N[C@H](C(=O)N[C@@H](CC(C)C)C(=O)N[C@@H](CC(=O)O)C(=O)N[C@@H](CC(C)C)C(=O)N[C@@H](CCCCN)C(=O)N[C@@H](C)C(=O)N[C@@H](C)C(=O)N[C@@H](CCCCN)C(=O)N[C@@H](CC(=O)O)C(=O)N[C@@H](Cc2ccccc2)C(=O)N[C@H](C(=O)N[C@@H](CC(N)=O)C(=O)N[C@@H](Cc2c[nH]c3ccccc23)C(=O)N[C@@H](CC(C)C)C(=O)N[C@H](C(=O)N[C@@H](CCC(N)=O)C(=O)N[C@H](C(=O)N[C@@H](CCCCN)C(=O)N[C@H](C(=O)N[C@H](C(=O)N[C@@H](CC(=O)O)C(N)=O)[C@@H](C)O)[C@@H](C)CC)[C@@H](C)O)[C@@H](C)CC)[C@@H](C)CC)[C@@H](C)CC)NC(=O)[C@@H](Cc2ccccc2)NC1=O [Example 85] (H-H[Aib]DGSFSKE[Nle][dF]DILDLKAAKDFINWLIQTKITD-NH2; lactam 8-12; N-terminus and C-terminus assumed)
Emax (human GLP2 receptor): 103% | EC50 (human GLP2 receptor): 0.0316 nM | Emax (human GLP1 receptor): 95.2% | EC50 (human GLP1 receptor): 12.6 nM

CCCC[C@H](NC(=O)[C@H](CCC(=O)O)NC(=O)[C@H](CC(=O)O)NC(=O)[C@H](CO)NC(=O)[C@H](Cc1ccccc1)NC(=O)[C@H](CO)NC(=O)CNC(=O)[C@H](CC(=O)O)NC(=O)C(C)(C)NC(=O)[C@@H](N)Cc1c[nH]cn1)C(=O)N[C@H](Cc1ccccc1)C(=O)N[C@H]1CC(=O)NCCCC[C@@H](C(=O)N[C@@H](CCCCN)C(=O)N[C@@H](C)C(=O)N[C@@H](C)C(=O)N[C@@H](CCCCN)C(=O)N[C@@H](CC(=O)O)C(=O)N[C@@H](Cc2ccccc2)C(=O)N[C@H](C(=O)N[C@@H](CC(N)=O)C(=O)N[C@@H](Cc2c[nH]c3ccccc23)C(=O)N[C@@H](CC(C)C)C(=O)N[C@H](C(=O)N[C@@H](CCC(N)=O)C(=O)N[C@H](C(=O)N[C@@H](CCCCN)C(=O)N[C@H](C(=O)N[C@H](C(=O)N[C@@H](CC(=O)O)C(N)=O)[C@@H](C)O)[C@@H](C)CC)[C@@H](C)O)[C@@H](C)CC)[C@@H](C)CC)NC(=O)[C@H](CC(=O)O)NC(=O)[C@H](CC(C)C)NC(=O)[C@H]([C@@H](C)CC)NC1=O [Example 97] (H-H[Aib]DGSFSDE[Nle][dF]DILDKKAAKDFINWLIQTKITD-NH2; lactam 12-16; N-terminus and C-terminus assumed)
Emax (human GLP2 receptor): 101% | EC50 (human GLP2 receptor): 0.00316 nM | Emax (human GLP1 receptor): 96.6% | EC50 (human GLP1 receptor): 0.316 nM

CCCC[C@@H]1NC(=O)[C@H](CCC(=O)O)NC(=O)[C@H](CC(=O)O)NC(=O)[C@@H](NC(=O)[C@H](Cc2ccccc2)NC(=O)[C@H](CO)NC(=O)CNC(=O)[C@H](Cc2nn[nH]n2)NC(=O)C(C)(C)C(=O)NCCc2c[nH]cn2)CCC(=O)NCCCC[C@@H](C(=O)N[C@H]2CCC(=O)NCCCC[C@@H](C(=O)N[C@H]3CCCCNC(=O)C[C@@H](C(=O)N[C@@H](Cc4ccccc4)C(=O)N[C@H](C(=O)N[C@H]4CCC(=O)NCCCC[C@@H](C(=O)N[C@H]5CCCCNC(=O)CC[C@@H](C(N)=O)NC(=O)[C@H]([C@@H](C)O)NC(=O)[C@H]([C@@H](C)CC)NC(=O)[C@H](CCCCN)NC5=O)NC(=O)[C@H]([C@@H](C)CC)NC(=O)[C@H](CC(C)C)NC(=O)[C@H](Cc5c[nH]c6ccccc56)NC4=O)[C@@H](C)CC)NC(=O)[C@H](CCCCN)NC(=O)[C@H](C)NC(=O)[C@H](C)NC3=O)NC(=O)[C@H](CC(=O)O)NC(=O)[C@H](CC(C)C)NC(=O)[C@H]([C@@H](C)CC)NC2=O)NC1=O [Example 81] ({Malonyl(2,2-Me2,histaminyl)}-[Ala(1H-tetrazol-5-yl)]GSFEDE[Nle]KEILDKKAAKDFIEWLIKKKITE-NH2; lactam 5-9, 10-14, 15-19, 22-26, 27-31; C-terminus assumed)
Emax (human GLP2 receptor): 91.6% | EC50 (human GLP2 receptor): 0.631 nM | Emax (human GLP1 receptor): 56.1% | EC50 (human GLP1 receptor): 3.16 nM

CCCC[C@@H]1NC(=O)[C@H](CCC(=O)O)NC(=O)[C@@H](NC(=O)[C@H](CO)NC(=O)[C@H](Cc2ccccc2)NC(=O)[C@H](CO)NC(=O)[C@@H](C)NC(=O)[C@H](Cc2nn[nH]n2)NC(=O)C(C)(C)C(=O)NCCc2c[nH]cn2)CCCCNC(=O)C[C@@H](C(=O)N[C@@](C)(CC(C)C)C(=O)N[C@@H](CC(C)C)C(=O)N[C@@H](CC(=O)O)C(=O)N[C@H]2CCC(=O)NCCCC[C@@H](C(=O)N[C@@H](CC(=O)O)C(=O)N[C@@H](Cc3ccccc3)C(=O)N[C@H](C(=O)N[C@@H](CC(N)=O)C(=O)N[C@@H](Cc3c[nH]c4ccccc34)C(=O)N[C@@H](CC(C)C)C(=O)N[C@H](C(=O)N[C@@H](CCC(N)=O)C(=O)N[C@H]3CCC(=O)NCCCC[C@@H](C(N)=O)NC(=O)[C@H]([C@@H](C)O)NC(=O)[C@H]([C@@H](C)CC)NC(=O)[C@H](CCCCN)NC3=O)[C@@H](C)CC)[C@@H](C)CC)NC(=O)[C@H](C)NC(=O)[C@H](C)NC(=O)[C@H](CCCCN)NC2=O)NC(=O)[C@@H](Cc2ccccc2)NC1=O [Example 24] ({Malonyl(2,2-Me2,histaminyl)}-[Ala(1H-tetrazol-5-yl)][dA]SFSKE[Nle][dF]D[αMeL]LDEKAAKDFINWLIQEKITK-NH2; lactam 6-10, 14-18, 27-31 (inferred); C-terminus assumed)
Emax (human GLP2 receptor): 103% | EC50 (human GLP2 receptor): 0.00794 nM | Emax (human GLP1 receptor): 96.8% | EC50 (human GLP1 receptor): 0.2 nM
